In PubChem BioAssay AID434941 (Johns Hopkins Ion Channel Center, 2010):

Target: Short transient receptor potential channel 4 (Mus musculus) (UniProt Q9QUQ5)
Experiment: potentiation of DAMGO-evoked TRPC4 calcium signal – cell-based, HEK293 TRPC4/mu-opioid, Fluo-4 calcium, EC20 DAMGO, dose response (AID 434941);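 also: calcium entry triggered by an EC20 dose of DAMGO at the co-expressed mu-opioid receptor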
Conditions: HEK293 TRPC4/mu-opioid cells, Fluo-4 calcium fluorescence

Sequence of Short transient receptor potential channel 4 (Mus musculus) (Q9QUQ5 whole entry, looked up): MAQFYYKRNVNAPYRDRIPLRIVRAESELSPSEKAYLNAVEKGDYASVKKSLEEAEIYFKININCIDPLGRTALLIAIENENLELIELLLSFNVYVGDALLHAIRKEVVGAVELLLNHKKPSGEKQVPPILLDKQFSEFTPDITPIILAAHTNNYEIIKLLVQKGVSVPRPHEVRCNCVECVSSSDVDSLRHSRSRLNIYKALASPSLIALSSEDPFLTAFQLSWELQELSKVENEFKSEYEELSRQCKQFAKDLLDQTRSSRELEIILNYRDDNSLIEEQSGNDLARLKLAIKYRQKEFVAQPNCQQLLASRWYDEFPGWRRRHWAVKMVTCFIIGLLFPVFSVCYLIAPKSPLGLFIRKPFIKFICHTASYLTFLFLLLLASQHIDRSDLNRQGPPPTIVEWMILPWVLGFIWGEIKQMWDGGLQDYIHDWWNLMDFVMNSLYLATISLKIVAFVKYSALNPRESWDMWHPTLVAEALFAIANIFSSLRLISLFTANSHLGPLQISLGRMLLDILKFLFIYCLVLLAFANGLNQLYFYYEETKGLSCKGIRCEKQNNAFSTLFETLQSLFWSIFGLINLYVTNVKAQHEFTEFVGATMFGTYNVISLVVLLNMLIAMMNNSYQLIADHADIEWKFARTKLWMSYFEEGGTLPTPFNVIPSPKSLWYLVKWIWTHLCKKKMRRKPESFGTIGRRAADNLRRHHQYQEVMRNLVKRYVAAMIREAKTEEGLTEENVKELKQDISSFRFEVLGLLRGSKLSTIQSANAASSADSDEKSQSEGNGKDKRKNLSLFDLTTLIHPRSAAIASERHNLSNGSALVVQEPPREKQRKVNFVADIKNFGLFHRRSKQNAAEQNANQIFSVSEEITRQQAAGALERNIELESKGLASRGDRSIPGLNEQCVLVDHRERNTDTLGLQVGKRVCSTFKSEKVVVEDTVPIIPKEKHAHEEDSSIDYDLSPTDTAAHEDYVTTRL

EC50: 5.96 µM
Compound: Cn1c(O)c(/C=N/NC(=O)c2cc3ccccc3cc2O)c2ccccc21
